Measurements as given in PubChem BioAssay (NCI).
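Compound exposure: 48 hours, 5 concentrations, 96-well plates. Abbreviation: GI50, concentration required for 50% inhibition of growth. TGI is the concentration that stops growth completely.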

Key:
Assay in all cases: NCI-60 cell line screen, 48 h
DMS 273 small cell lung = tested on: DMS 273 small cell lung
ACHN renal = tested on: ACHN renal
NCI-H23 lung = tested on: NCI-H23 lung
IGROV1 ovarian = tested on: IGROV1 ovarian
DMS 114 small cell lung = tested on: DMS 114 small cell lung
COLO 205 colon = tested on: COLO 205 colon
KM12 colon = tested on: KM12 colon
NCI-H226 lung = tested on: NCI-H226 lung
SK-MEL-2 melanoma = tested on: SK-MEL-2 melanoma
OVCAR-4 ovarian = tested on: OVCAR-4 ovarian

Structure (SMILES)	TGI (DMS 273 small cell lung) [µM]	TGI (ACHN renal) [µM]	TGI (NCI-H23 lung) [µM]	TGI (IGROV1 ovarian) [µM]	TGI (DMS 114 small cell lung) [µM]	TGI (COLO 205 colon) [µM]	TGI (KM12 colon) [µM]	TGI (NCI-H226 lung) [µM]	GI50 (DMS 273 small cell lung) [µM]	GI50 (ACHN renal) [µM]	GI50 (NCI-H23 lung) [µM]	GI50 (IGROV1 ovarian) [µM]	GI50 (DMS 114 small cell lung) [µM]	GI50 (COLO 205 colon) [µM]	GI50 (KM12 colon) [µM]	GI50 (SK-MEL-2 melanoma) [µM]	TGI (SK-MEL-2 melanoma) [µM]	GI50 (OVCAR-4 ovarian) [µM]	TGI (OVCAR-4 ovarian) [µM]	GI50 (NCI-H226 lung) [µM]
NC(CCCC(N)P(=O)(O)O)P(=O)(O)O (stereo not given)	> 100	> 100	> 100	> 100	> 100	> 100	> 100	> 100												
CCC[CH2][Sn]([CH2]CCC)([O]C(=O)CN)[O]C(=O)CN	> 100	> 100	70.2	> 100	46.5	> 100	> 100	> 100	38.6	48.1	21.1	> 100	17.9	42.9	> 100	18.5	48.8	> 100	> 100	> 100
CCCCCCCCCCCCCP(=O)(O)O	> 100	> 100	> 100	> 100	> 100	> 100	> 100	> 100									> 100		> 100	
N#C/C(=C/c1cccc(Oc2ccccc2)c1)c1ccccc1		> 100	> 100	> 100	> 100	> 100	> 100	> 100									> 100		> 100	
CCC1=CCN(c2cc(C)ccn2)OC1c1ccc(OC)cc1 (stereo not given)		> 100	> 100	> 100	91.6	33.6	> 100	> 100									41.4		> 100	
COc1ccc([C@@]2(O)c3c(ccc(O)c3OC)[C@H]2OC)c(OC)c1		> 100	> 100	> 100	75.9	> 100	> 100	> 100									> 100		> 100	
